{"source": "patent US20060252828A1", "about": "(priority 2003, published 2006)", "tested_on": "Meloidogyne spp (Mixture of Meloidogyne incognita and Meloidogyne hapla)", "settings": "in vivo", "note": "“And” between values parts separate entries of the source, which are not always exact repeats. Equal entries are not always repeated.", "data": [{"smiles": "CN1CSC(=S)N(C)C1", "note": "[dazomet, 3,5-dimethyltetrahydro-2H-1,3,5-thiadiazine-2-thione]", "values": [{"measurement": "Observed efficacy", "result": "2% and 0%"}]}]}
